Values quoted from earlier work in patent US11434243B2, “Triazoloquinazolinone synthesis” (priority 2017, dated 2022).

How the values were obtained:
[1] = system: benzodiazepine site of the GABAA receptor complex
[2] = qualitative; complicates purification

## Cc1ccc(-n2nc3c4cc(Cc5ccccc5)ccc4[nH]c(=O)n3c2=O)cc1 [Compound 12, 9-benzyl-2-(4-methylphenyl)-2,6-dihydro[1,2,4]triazolo[4,3-c]quinazoline-3,5-dione]
[1]; fold more potent than diazepam
  potency relative to diazepam in displacing 3H-Flumazenil: 10 times
[1]; rat membrane preparations, result in words
  inhibition of the binding of 3H-Flumazenil to the benzodiazepine site of the GABAA receptor complex: very potent inhibitor
[1]; result in words
  selectivity for the GABAA receptor complex: selective for the GABAA receptor complex
[2]
  solubility: low solubility
